# Earlier results in US20100119592A1, “CYTARABINE FOR TREATMENT OF GLIOMA” (priority 2006, published 2010).
# System: proliferating mammalian cells in culture
# Details: wide variety of proliferating mammalian cells in culture
compound,measurement,value
"Nc1ccn([C@@H]2O[C@H](CO)[C@@H](O)[C@@H]2O)c(=O)n1 [Cytarabine, 4-amino-1-beta-D-arabinofuranosyl-2(1H)-pyrimidinone]",cytotoxicity,cytotoxic
